Experimental data reported in patent publication US7626042B2, “O-substituted hydroxyaryl derivatives” (Institute of Medicinal Molecular Design, Inc., priority 2002, dated 2009).

Tested on: NF-κB activation
Experiment: Inhibitory activity against NF-κB activation, luciferase reporter assay under TNF-α stimulation
Type: cell-based, human
Settings: HepG2 cells, TNF-α 40 ng/ml, 4 hours; for inhibition at 1 µg/mL / inhibition at 10 µg/mL: Homo sapiens, read-out: Inhibitory Ratio of NF-κ B Activation(%)
Summary of the method: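 HepG2 cells transfected with firefly luciferase reporter carrying five tandem NF-κB sites, incubated 6 to 24 hours, then cultured 4 hours with TNF-α (40 ng/ml) plus test compound. Luminescent luciferase read-out; inhibition expressed relative to activity without compound.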

O=C(Cc1ccc2c(c1)OCO2)Oc1ccc(Cl)cc1C(=O)Nc1cc(C(F)(F)F)cc(C(F)(F)F)c1 [Compound 9]
Inhibitory Ratio of NF-κ B Activation(%) (Drug Concentration 1 μg/mL): 94.6%
Inhibitory Ratio of NF-κ B Activation(%) (Drug Concentration 10 μg/mL): 97.3%

COC(=O)[C@H](C)NC(=O)Oc1ccc(Cl)cc1C(=O)Nc1cc(C(F)(F)F)cc(C(F)(F)F)c1 [Compound 58]
Inhibitory Ratio of NF-κ B Activation(%) (Drug Concentration 1 μg/mL): 97.9%
Inhibitory Ratio of NF-κ B Activation(%) (Drug Concentration 10 μg/mL): 98.8%

CC(=O)OC[C@H]1O[C@@H](Oc2ccc(Cl)cc2C(=O)Nc2cc(C(F)(F)F)cc(C(F)(F)F)c2)[C@H](OC(C)=O)[C@@H](OC(C)=O)[C@@H]1OC(C)=O [Compound 112]
Inhibitory Ratio of NF-κ B Activation(%) (Drug Concentration 1 μg/mL): 47.2%
Inhibitory Ratio of NF-κ B Activation(%) (Drug Concentration 10 μg/mL): 49.5%

CC(Oc1ccccc1)C(=O)Oc1ccc(Cl)cc1C(=O)Nc1cc(C(F)(F)F)cc(C(F)(F)F)c1 (stereo not shown) [Compound 15]
Inhibitory Ratio of NF-κ B Activation(%) (Drug Concentration 1 μg/mL): 97.9%
Inhibitory Ratio of NF-κ B Activation(%) (Drug Concentration 10 μg/mL): 99.1%

CC(C)C[C@H](NC(=O)OC(C)(C)C)C(=O)Oc1ccc(Cl)cc1C(=O)Nc1cc(C(F)(F)F)cc(C(F)(F)F)c1 [Compound 26, 2-[N-(tert-butoxycarbonyl)-L-leucyl]oxy-5-chloro-N-[3,5-bis(trifluoromethyl)phenyl]-benzamide]
inhibition at 1 µg/mL (Drug Concentration 1 μg/mL): 97.8%
inhibition at 10 µg/mL (Drug Concentration 10 μg/mL): 98.9%

O=C(CNC(=O)OCc1ccccc1)Oc1ccc(Cl)cc1C(=O)Nc1cc(C(F)(F)F)cc(C(F)(F)F)c1 [Compound 21]
Inhibitory Ratio of NF-κ B Activation(%) (Drug Concentration 1 μg/mL): 96.7%
Inhibitory Ratio of NF-κ B Activation(%) (Drug Concentration 10 μg/mL): 98.7%

CC(C)C[C@H](NC(=O)[C@@H](N)CC(=O)O)C(=O)Oc1ccc(Cl)cc1C(=O)Nc1cc(C(F)(F)F)cc(C(F)(F)F)c1.Cl [Compound 38]
Inhibitory Ratio of NF-κ B Activation(%) (Drug Concentration 1 μg/mL): 97.8%
Inhibitory Ratio of NF-κ B Activation(%) (Drug Concentration 10 μg/mL): 98.6%

O=C(Nc1cc(Cl)cc(Cl)c1)c1cc(Cl)ccc1OC(=O)N1CCOCC1 [Compound 89, 5-Chloro-N-(3,5-dichlorophenyl)-2-[(morpholinocarbonyl)oxy]benzamide]
inhibition at 1 µg/mL (Drug Concentration 1 μg/mL): 48.3%
inhibition at 10 µg/mL (Drug Concentration 10 μg/mL): 35.9%
